PMC6698751 (2019)

Key:
[1] = test system: C1Z glutamine-II riboswitch (RNA, riboswitch, zebularine at 1 (C1Z)) CGUUCACCCUUCGGGGCGCAUGAAAUGGGAGUAGGGAACGGGAUUCUCAU; assay: isothermal titration calorimetry; details: 100 mM K+, 10 mM Mg2+; 40 mM HEPES-K pH 7.0, 298 K; no measurable heat; 2-4 mM L-glutamine in syringe
[2] = test system: glutamine-II riboswitch (unmodified; RNA used for calorimetry) (RNA, riboswitch) CGUUCACCCUUCGGGGCGCAUGAAAUGGGAGUAGGGAACGGGAUUCUCAU; assay: isothermal titration calorimetry; details: 100 mM K+, 10 mM Mg2+; 40 mM HEPES-K pH 7.0 (7.2 in Figure 4 legend), 298 K; mean of three titrations
[3] = test system: G18 O2'H glutamine-II riboswitch (RNA, riboswitch, 2'-deoxy at 18 (2'-hydroxyl of G18 removed)) CGUUCACCCUUCGGGGCGCAUGAAAUGGGAGUAGGGAACGGGAUUCUCAU; assay: isothermal titration calorimetry; details: 100 mM K+, 10 mM Mg2+; 40 mM HEPES-K pH 7.0, 298 K; 2-4 mM L-glutamine in syringe
[4] = test system: glutamine-II riboswitch (RNA used for crystallization) (RNA, riboswitch, 5-bromocytidine at 8 and 9) CGUUCACCCUUCGGGGCGCAUGAAAUGGGAGUAGGGAACGGGAUUCUCAU; assay: X-ray crystallography, 2.3 Å; details: Mg2+ in PDB record; strand-exchanged dimer; metal ion directly bound to glutamine carboxylate
[5] = test system: two-piece glutamine-II riboswitch (RNA, riboswitch) CGUUCACCCUUCGGGGCGCA/UGAAAUGGGAGUAGGGAACGGGAUUCUCAU; assay: isothermal titration calorimetry; details: 100 mM K+, 10 mM Mg2+; equimolar mixture of two strands, 40 mM HEPES-K pH 7.0, 298 K
[6] = test system: C39Z glutamine-II riboswitch (RNA, riboswitch, zebularine at 39 (C39Z)) CGUUCACCCUUCGGGGCGCAUGAAAUGGGAGUAGGGAACGGGAUUCUCAU; assay: isothermal titration calorimetry; details: 100 mM K+, 10 mM Mg2+; 40 mM HEPES-K pH 7.0, 298 K; 2-4 mM L-glutamine in syringe

binding [1]: no | Kd [2]: 190 ± 90 µM | binding [3]: no | binding [4]: yes | binding [5]: yes | binding [6]: no
Structure (SMILES): NC(=O)CC[C@H](N)C(=O)O
